Results taken from patent US6316421A, “Pentaerythritol lipid derivatives and nuleic-acid complexes” (The Regents of the University of California, priority 2000, dated 2001).

Experiments:
[1] = tested on: NIH 3T3 and 16HBE14o- cells; assay: GFP reporter gene transfection (pEGFP-C1), fluorescence microscopy; assay type: cell-based; conditions: 48 h post-transfection
Method: (§1) Fluorescence experiments were conducted by transfecting the pEGFP-C1 C-Terminal protein fusion vector (Clontech, Palo Alto, Calif.) into NIH 3T3 and 16HBE14o- cells. The transfection protocol was identical to that of luciferase expression experiments in Example 1. Cells were grown for 48 h post-transfection, fixed with 3.7% formaldehyde, and viewed on a Zeiss ICM 405 inverted microscope with high resolution long-working distance objectives. Cells were photographed on the fluorescein channel and with phase contrast optics with a 40× water objective, using T-Max 400 (Kodak, Rochester, N.Y.) film.
(§2) To probe relationships between cellular uptake, expression, and cytotoxicity, a transfection study was conducted using the GFP reporter gene. Fluorescent microscopy of cells treated with GFP-encoded plasmid is a sensitive tool for determining the occurrence of transgene expression. […] Thus, the onset of cytotoxicity precedes gene expression.

[2] = tested on: NIH 3T3 and 16HBE14o- cells; assay: Phase contrast microscopy of cells transfected with GFP lipoplexes; assay type: cell-based; conditions: for cell morphology by phase contrast: 48 h post-transfection, cell line not stated
Method: as §1, §2

NIH 3T3 cells [3] = assay: Relative cytotoxicity by MTS assay (CellTiter 96) of lipoplex-treated NIH 3T3 cells; assay type: cell-based; conditions: 1:1 lipid:DOPE, 2:1 charge ratio, FIG. 2
Method: (§3) FIG. 2 is a bar graph showing luciferase transfection results as the mean (n=4) and standard deviation of total luciferase light units (RLU, left vertical axis) obtained from NIH 3T3 cells lysed after administration of […] of DNA. Relative cytotoxicity, depicted by the solid line, is plotted according to the right vertical axis, calculated as described in Example 3. With the exception of DOTAP, 1:1 cationic lipid:DOPE liposomes at a 2:1 molar charge ratio (lipid charge to DNA phosphate charge) were used for lipoplex formation. DOTAP was used without a co-lipid.
(§4) Cell viability was determined by evaluating the […] dehydrogenase activity of post-transfected cells prior to lysis using the CellTiter 96 Aqueous Non-Radioactive Cell Proliferation Assay (Promega). The tetrazolium salt solution (Owen's Reagent; […]) was added to each well and the 24 well plate was then gently agitated to ensure complete mixing. After incubation for an additional 3-4 h, each well was assayed for formazan production by removing an aliquot of the medium and diluting with 9 parts phosphate buffered saline (PBS) solution. The dilution was conducted in a 1.5 mL methylacrylate UV/VIS disposable cell, and the relative amount of formazan was determined by taking absorbance reading at 490 nm using PBS as the reference. The mean (n=4) of the absorbance values was calculated and compared to the mean absorbance value for non-transfected cells. The final results were expressed in terms of relative cytotoxicity. Relative cytotoxicity was calculated by subtracting from one the ratio of mean absorbance value for transfected cells over mean absorbance value for untreated cells. A relative cytotoxicity value of zero implies no difference from untreated cells, no measurable cytotoxicity. The maximum value of one implies total cell death for treated cells, no measurable formazan production indicating significant toxicity. Negative values may reflect enhanced formazan production as a consequence of cell growth relative to untreated cells.
(§5) To test whether (DMTM(Gly)) and (DOTM(GLY)) ameliorate lipid-induced cytotoxicity, a cell viability assay was performed. The relative cytotoxicity for these lipids and the popular transfection lipids DOTAP and DC-Chol was determined by measuring the […] dehydrogenase activity for lipoplex-treated cells. The comparative assay was performed using NIH 3T3 and 16HBE14o- cells, and the results are plotted in FIGS. 2 and 3, respectively. A requisite for evaluation of cytotoxicity is the concurrent determination of relative transfection activity. Thus, the cationic lipids were evaluated for relative cytotoxicity immediately prior to determination of luciferase activity. […]

[4] = as above; assay type: cell-based; conditions: mouse, nih 3t3 cells, 1:1 lipid:DOPE, 2:1 charge ratio, FIG. 2, read-out: treated cells impaired
Method: as §3, §4, §5

16HBE14o- cells = assay: Luciferase transfection (pGL3-control plasmid), 16HBE14o- cells; assay type: cell-based, Human; conditions: FIG. 3
Method: as §3, with “FIG. 3” for “FIG. 2”, “from 16HBE14o-” for “from NIH 3T3”
(§6) a.) Liposome Formulation.
(§7) The cationic lipid […] and DOPE […] were added as chloroform solutions to a 1.9 mL sample vial. The chloroform was evaporated using a stream of dry argon at room temperature. The resulting thin lipid films were placed under vacuum for 2-3 h to ensure that all traces of solvent were removed. Sterile water (1.0 mL) was then added to hydrate the lipid thin films, and the resultant suspension was vigorously mixed (vortex) at room temperature with occasional warming in a 60° C. water bath. The resultant 1.0 mM lipid suspension was used within 2 h of hydration.
NIH 3T3 cells were obtained from ATCC (CRL 1658) and grown in Dulbecco's Modified Eagle's Medium (DMEM; GIBCO) with 10% fetal calf serum (GIBCO) in a humidified 10% CO2 incubator at 37° C. Human bronchial epithelial cells (16HBE14o-) were cultured in Eagle's modified essential medium (MEM; GIBCO) supplemented with 10% fetal bovine serum (GIBCO), 1% glutamine (GIBCO), 1% penicillin and streptomycin (GIBCO), and grown in a 5% humidified CO2 incubator at 37° C. […]
Cationic lipid-DNA complexes were prepared 15-40 mins prior to transfection. The pGL3-control vector encoding for firefly luciferase (Promega, Madison, Wis.) was. slowly added to a diluted (DMEM or MEM) quantity of the cationic lipid:DOPE suspension in a polystyrene tube. […]
(§8) Relative luciferase activity was determined by using the Enhanced Luciferase Assay Kit and a Moonlight 2010 luminometer (Analytical Luminescence Laboratories, Sparks, Md.). […]

NIH 3T3 cells [5] = assay: Luciferase transfection (pGL3-control plasmid), NIH 3T3 cells; assay type: cell-based; conditions: for facilitating the intracellular delivery of plasmid DNA: Example 2 conclusion, luciferase plasmid
Method: FIG. 1 is a bar graph showing the transfection activity of DMTM(Gly):DOPE liposomes as a function of the mole percent DOPE. DNA transfections were performed using NIH 3T3 cells. Lipoplexes were formulated at a 2:1 molar charge ratio (lipid charge to DNA phosphate charge). The values shown are the mean (n=4) and standard deviation of total luciferase light units (RLU) obtained from cells lysed after administration of […] DNA.
as §3, §6, §7
NIH 3T3 cells were obtained from ATCC (CRL 1658) and grown in Dulbecco's Modified Eagle's Medium (DMEM; GIBCO) with 10% fetal calf serum (GIBCO) in a humidified 10% CO2 incubator at 37° C. Human bronchial epithelial cells (16HBE14o-) were cultured in Eagle's modified essential medium (MEM; GIBCO) supplemented with 10% fetal bovine serum (GIBCO), 1% glutamine (GIBCO), 1% penicillin and streptomycin (GIBCO), and grown in a 5% humidified CO2 incubator at 37° C. Both cell lines were subcultured into sterile, untreated flasks.
The NIH 3T3 cells were plated at 50,000 cells per well on a standard 24 well plate (Corning, Corning, N.Y.) 24 h prior to transfection. Cells were approximately 80% confluent at the time of transfection. The HBE cells were plated at 50,000 cells/well on a 24 well tissue culture plate coated with fibronectin, vitrogen (collagen), and bovine serum albumin as previously described (Gruenert, D. C., Basbaum C. B., and Widdicombe J. H. (1990) In Vitro Cell Dev Biol., 26, 411-418.) and were transfected as subconfluent monolayers 24 h prior to transfection. The growth media was removed via aspiration and each well was washed once with 0.5 mL buffered saline and overlaid with only MEM.
Cationic lipid-DNA complexes were prepared 15-40 mins prior to transfection. The pGL3-control vector encoding for firefly luciferase (Promega, Madison, Wis.) was. slowly added to a diluted (DMEM or MEM) quantity of the cationic lipid:DOPE suspension in a polystyrene tube. (Falcon #2058), and the lipid-DNA complex was diluted to a final volume of […]. Typically (e.g. using DOTAP), […] of the lipid suspension was used to complex […] of the plasmid DNA, yielding a 2:1 cationic lipid:DNA phosphate molar ratio. Immediately on DNA addition, the suspension was vortexed and allowed to incubate for 15 min at room temperature. A […] aliquot of the resultant lipid-DNA suspension was added to each well […]. The treated cells were then incubated for 4 h at 37° C. Control wells were treated with […] of medium without supplement. At this time, […] of the appropriate growth media including 10% FCS was added to all wells and the cells cultured for 48 h prior to lysis and analysis.
as §8

Row | SMILES | GFP gene transfer (presence of fluorescent cells) [1] | cell morphology by phase contrast [2] | vacuolization compared with DOTM(Gly), DOTAP, or DMTM(Gly) ([2]; phase contrast) | cytotoxic response (MTS relative cytotoxicity) (NIH 3T3 cells [3]) | cytotoxicity [4] [%] | transfection activity compared with DOTAP and DC-Chol (16HBE14o- cells; 1:1 lipid:DOPE) | facilitating the intracellular delivery of plasmid DNA (NIH 3T3 cells [5]) | transfection activity compared with DOTAP and DC-Chol (NIH 3T3 cells [5]; NIH 3T3, 1:1 lipid:DOPE, FIG. 2) | transfection activity on co-formulation with DOPE (DOPE titration) (NIH 3T3 cells [5]; NIH 3T3, equimolar lipid and DOPE, 2:1 molar charge ratio, FIG. 1) | effect of larger percentage DOPE on transfection activity (NIH 3T3 cells [5]; NIH 3T3, larger percentage DOPE than equimolar, FIG. 1) | expression in comparison to DOTAP and DC-Cholesterol (16HBE14o- cells; 1:1 lipid:DOPE (DOTAP without co-lipid)) | transfection activity compared with dimyristoyl analog (16HBE14o- cells; 1:1 lipid:DOPE, 2:1 charge ratio) | lipid:DOPE optimization results compared with DMTM(Gly) (NIH 3T3 cells [5]; DOPE titration, compared with DMTM(Gly):DOPE) | expression in comparison to DOTAP and DC-Cholesterol (NIH 3T3 cells [5]; NIH 3T3, 1:1 lipid:DOPE (DOTAP without co-lipid), FIG. 2) | transfection activity compared with dimyristoyl analog (NIH 3T3 cells [5]; NIH 3T3, 1:1 lipid:DOPE, 2:1 charge ratio, FIG. 2)
1 | CC(C)CCC[C@@H](C)[C@H]1CC[C@H]2[C@@H]3CC=C4C[C@@H](OC(=O)NCCN(C)C)CC[C@]4(C)[C@H]3CC[C@]12C [DC-Chol, 3,β-(N-(N',N'-dimethylaminoethane)-carbamoyl)cholesterol, reference compound] | active in facilitating gene transfer | dense regions of large vacuoles | significantly greater vacuolization | significantly more cytotoxic | ~60 | – | – | – | – | – | – | – | – | – | –
2 | CCCCCCCCCCCCCC(=O)OCC(COC(=O)CCCCCCCCCCCCC)(COC(=O)C[N+](C)(C)C)COC(=O)C[N+](C)(C)C [DMTM(Gly), dimyristoyl bis(N,N,N-trimethylglycyl) tetraester] | – | – | – | did not induce a cytotoxic response | – | transfection activities similar to DOTAP and DC-Chol | capable of facilitating the intracellular delivery of plasmid DNA | transfection activities similar to DOTAP and DC-Chol | near optimal transfection activity | only negligible improvement | – | – | – | – | –
3 | CCCCCCCC/C=C\CCCCCCCC(=O)OCC(COC(=O)CCCCCCC/C=C\CCCCCCCC)(COC(=O)C[N+](C)(C)C)COC(=O)C[N+](C)(C)C [DOTM(Gly), dioleoyl bis (N,N,N-trimethylglycyl) tetraester] | active in facilitating gene transfer | normal cellular morphology | – | did not induce a cytotoxic response | – | – | capable of facilitating the intracellular delivery of plasmid DNA | – | – | – | reaching an order of magnitude greater expression | greater transfection activity than the dimyristoyl analog | similar | reaching an order of magnitude greater expression | greater transfection activity than the dimyristoyl analog
